Results reported in article PMC11096781, “Population pharmacokinetics of intravenous daptomycin in critically ill patients: implications for selection of dosage regimens” (Frontiers in Pharmacology, 2024).
“Also recorded” adds a separate entry of the source.

Assays:
[1] = From the text: Plasma samples were collected from patients who received an intravenous infusion of daptomycin in the intensive care unit (ICU) of Zhongnan Hospital of Wuhan University from April 2021 to December 2022 according to the inclusion and exclusion criteria and the clinical sample sampling protocol for blood drug concentration testing. Patients who fulfilled the following criteria were eligible: ≥18 years old; treated with daptomycin for proven/probable infections caused by Gram-positive organisms that were unresponsive or intolerant to other antimicrobial agents. The exclusion criteria were pregnancy, known or suspected hypersensitivity to daptomycin and its excipients, and incomplete or missing laboratory data before and after treatment.
Daptomycin (Jiangsu Hengrui Medicine Co., Ltd.) dissolved in 100 mL normal saline was administered as a 30-min infusion. The daptomycin dose was 500 mg every 24 h. To obtain a complete blood drug concentration time curve after administration, we took into account the equilibrium phase (near peak concentration) and elimination phase of the drug in the design of sampling time points. On the first day of administration, blood samples were collected at 0, 0.5, 1, 2, 4, 8, 12, and 24 h after infusion. On the third day of administration, blood samples were collected before administration and at 0, 0.5, 1, 2, 4, 8, 12, and 24 h after infusion. On the fifth and seventh days, blood samples were collected before administration and at 0.5 and 4 h after infusion. Blood was drawn and allowed to clot in yellow blood-collecting tubes containing separating glue and a coagulant accelerator. Serum was collected by centrifugation and stored at −80°C until assayed. As soon as the study dose was administered, the participants were monitored for potential side effects. Serious adverse events were defined as adverse events related to daptomycin that required treatment discontinuation.
Serum daptomycin concentrations were measured using a high-performance liquid chromatography-tandem mass spectrometry method developed in our laboratory, the lower limit of quantification was 0.05 μg mL^−1. Briefly, serum samples were analyzed after protein precipitation. Daptomycin-d5 (Beijing Hager Biotechnology Co., Ltd.) was used as an internal standard. A Waters ACQUITY UPLC C8 column (2.1 mm × 50 mm, 1.7 μm) was used for separation. The mobile phase consisted of phase A: water (0.1% formic acid), phase B: 1:1 methanol: acetonitrile (0.1% formic acid) at a flow rate of 0.4 mL min^−1, column temperature of 45°C, injection volume of 2 μL, and analysis time of 4 min. Ion transitions were performed using positive electrospray ionization in the multiple reaction monitoring mode.
Before measurement, the sample was restored to room temperature, 100 μL of 1:1 methanol: acetonitrile was measured into a […] EP tube, then 10 μL of daptomycin-d5 with 40 μL of sample/standard/quality control was added, the sample was vortex shaken for 1 min, centrifuged at high speed for 8 min (14,500 r/min), and the supernatant was placed in a 96-well plate for the assay.
NONMEM (version 8.1; ICON Development Solutions, Hanover, MD, United States) was used to establish a population PK model for daptomycin and to perform Monte Carlo simulations ([Bauer et al., 2007]). The ADAPT-TRAN program was used for pre- and post-processing ([Savic et al., 2009]). This study explored one- and two-compartment models of population PK of daptomycin. The two-compartment, disposition model was parameterised in terms of total clearance (CL), volume of distribution in the central compartment (VC), volume of distribution in the peripheral compartment (VP), and intercompartmental clearance (Q). The first order conditional estimation with inter- and intra-subject variability interaction (FOCE-I) was employed for all model runs. The inter-individual variability (η) was described using lognormal distributions, and a mixed additive and proportional model was chosen for residual variability (Ɛ). […]

[2] = Monitoring of creatinine phosphokinase (CPK) and adverse reactions during treatment; type: in vivo, human; details: 64 critically ill patients, 500 mg q24h i.v., during the treatment period
Method: Demographic and clinical characteristics of the enrolled patients were also collected from the medical records, including age, sex, weight, diagnosis, comorbidities, outcome, combination of other drugs (including antimicrobials), daily complete blood counts, biochemical test results (including liver and renal function and creatinine phosphokinase (CPK)), and whether CRRT or ECMO therapy was performed. In addition, acute physiology and chronic health evaluation (APACHE) and sequential organ failure assessment (SOFA) scores were calculated for each patient to determine disease severity. The patient’s creatinine clearance (CLCR) was calculated according to the Cockcroft-Gault formula based on serum creatinine at steady state on day 3.
The daptomycin dose was 500 mg every 24 h.

[3] = cited from earlier work
[4] = bootstrap analysis with 1000 samples

With `CCCCCCCCCC(=O)N[C@@H](Cc1c[nH]c2ccccc12)C(=O)N[C@H](CC(N)=O)C(=O)N[C@@H](CC(=O)O)C(=O)N[C@@H]1C(=O)NCC(=O)N[C@@H](CCCN)C(=O)N[C@@H](CC(=O)O)C(=O)N[C@H](C)C(=O)N[C@@H](CC(=O)O)C(=O)NCC(=O)N[C@H](CO)C(=O)N[C@@H]([C@H](C)CC(=O)O)C(=O)N[C@@H](CC(=O)c2ccccc2N)C(=O)O[C@@H]1C` [daptomycin, Daptomycin] the “Q, bootstrap median” value [1, 4] was 2.086 L/h, the “VC, bootstrap median” value [1, 4] was 4.14 L and the “VP, bootstrap median” value [1, 4] was 3.527 L. For the same compound, the “CL, renal part: coefficient of CCR/54 in the final covariate model” value ([1]; human, in vivo) was 0.148 L/h, the “CRRT clearance, bootstrap median” value ([1]; human, in vivo) was 0.386 L/h and the “NR (no renal clearance), bootstrap median” value ([1]; human, in vivo) was 0.231 L/h. The Q ([1]; human, in vivo) was 2.13 ± 0.17 L/h, the “R (renal clearance), bootstrap median” value ([1]; human, in vivo) was 0.15 and the “R (renal clearance), final model estimate” value ([1]; human, in vivo) was 0.152. For the same compound, the V1 ([1]; human, in vivo) was 4.20 ± 0.19 L, the V2 ([1]; human, in vivo) was 3.67 ± 0.25 L and the “non-renal clearance rate (CLNR) of non-CRRT patients” value ([1]; human, in vivo) was 0.23 ± 0.05 L/h. For the same compound, the “renal clearance part (CLR), coefficient × (CCR/54)” value ([1]; human, in vivo) was 0.14 ± 0.035, the “NR (no renal clearance), final model estimate” value ([1]; human, in vivo, iv) was 0.229 L/h and the “Q (intercompartmental clearance), final model estimate” value ([1]; human, in vivo, iv) was 2.09 L/h. The “VC (volume of distribution in the central compartment), final model estimate” value ([1]; human, in vivo, iv) was 4.14 L, the “VP (volume of distribution in the peripheral compartment), final model estimate” value ([1]; human, in vivo, iv) was 3.52 L and the clearance ([1]; human, in vivo, iv) was 6.43 mL/min. For the same compound, the “VP of males relative to females” value ([1]; sex as covariate in forward inclusion, not retained in the final model) was “approximately 1.4 times”, the “CPK elevation or other adverse reactions related to daptomycin” value [2] was “No increase in CPK or other adverse reactions; also recorded: no elevation of CPK associated with daptomycin was found” and the “metabolism by liver enzymes” value ([3]; ref Dvorchik et al., 2004) was “not metabolized by liver enzymes”. For the same compound, the “eliminated by the kidneys” value ([3]; ref Enoch et al., 2007) was 78% and the half-life ([3]; ref Hawkey, 2008) was “approximately 8 h”.
